According to PubChem BioAssay (NCI):
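Cultured in 96-well plates, cells were exposed to test compound for 48 hours across five concentrations. The concentration for 50% growth inhibition is given as GI50. The concentration for full growth arrest is given as TGI.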

Key:
Assay in all cases: DTP human tumour cell line panel, 48 h
TK-10 renal = test system: TK-10 renal
PC-3 prostate = test system: PC-3 prostate
SK-MEL-5 melanoma = test system: SK-MEL-5 melanoma
MOLT-4 leukemia = test system: MOLT-4 leukemia
UACC-257 melanoma = test system: UACC-257 melanoma
RXF 393 renal = test system: RXF 393 renal
HOP-92 NSCLC = test system: HOP-92 NSCLC
COLO 205 colon = test system: COLO 205 colon
CCRF-CEM leukemia = test system: CCRF-CEM leukemia
LOX IMVI melanoma = test system: LOX IMVI melanoma

Row | Structure (SMILES) | GI50 (TK-10 renal) [µM] | TGI (TK-10 renal) [µM] | GI50 (PC-3 prostate) [µM] | TGI (PC-3 prostate) [µM] | GI50 (SK-MEL-5 melanoma) [µM] | TGI (SK-MEL-5 melanoma) [µM] | GI50 (MOLT-4 leukemia) [µM] | TGI (MOLT-4 leukemia) [µM] | GI50 (UACC-257 melanoma) [µM] | TGI (UACC-257 melanoma) [µM] | GI50 (RXF 393 renal) [µM] | TGI (RXF 393 renal) [µM] | GI50 (HOP-92 NSCLC) [µM] | TGI (HOP-92 NSCLC) [µM] | GI50 (COLO 205 colon) [µM] | TGI (COLO 205 colon) [µM] | GI50 (CCRF-CEM leukemia) [µM] | TGI (CCRF-CEM leukemia) [µM] | TGI (LOX IMVI melanoma) [µM] | GI50 (LOX IMVI melanoma) [µM]
1 | Cl.Fc1c[c-]c(-c2ccccn2)c(F)c1.[Pt].c1ccc([PH+](CC[PH+](c2ccccc2)c2ccccc2)c2ccccc2)cc1 | 0.157 | 1.13 | 0.0514 | 1.09 | 0.13 | 0.261 | 0.291 | 1.29 | 0.165 | 0.975 | 0.214 | 0.997 | 0.121 | 0.422 |  |  |  |  |  | 
2 | O=C(Nc1ccncc1)C(=O)c1cn(S(=O)(=O)c2ccccc2F)c2ccccc12 | 9.71 | > 49.3 | 2.35 | > 68.5 | 0.693 | 16.2 | 3.45 | > 45.7 | 5.51 | > 78.4 | 2.44 | 9.18 | 2.93 | 60.2 | 23.6 | > 100 | 4.35 | > 100 | > 100 | 
3 | CCc1oc2ccccc2c1C(=O)c1cc(Br)c(O)c(Br)c1 |  | 64.9 |  | 43.6 |  | 32.2 |  | 59.7 |  | 42.8 |  | 35 |  | 64.2 |  | 40.6 |  | 55.4 | 55.3 | 
4 | Cc1cc(-c2nc3ccc(O)cc3s2)ccc1N | 76.8 | > 100 | 50.2 | > 100 | 52.1 | > 100 | 27.1 | > 100 | > 100 | > 100 | 30.5 | > 100 | > 100 | > 100 | > 100 | > 100 | 0.797 | > 100 | > 100 | > 100
5 | O=C(CNC(=O)c1cccc2ccccc12)Nc1ccccc1Oc1ccccc1 | 0.619 | > 10 | 0.304 | > 10 | 0.262 | 4.1 | 0.348 | > 10 |  |  |  |  | 2.22 | > 10 | 0.308 | 1.14 | 0.345 | > 10 | > 10 | 0.307
6 | COc1cc2c(OC)c(c1)CCCC1=CC(=O)C=C(CCC2)C1=O |  | > 100 |  | > 100 |  | > 100 |  | 15.7 |  | > 100 |  | 76.7 |  | 36.6 |  | > 31.6 |  | 20.1 | 31.1 | 
7 | CCOC(=O)C#Cc1ccc(C#CC(=O)OCC)cc1 |  | 17.8 |  | > 28.4 |  | > 27.4 |  |  |  | > 56.4 |  | 16.6 |  | > 31.7 |  | 16.5 |  | > 20.8 | > 22.1 | 
8 | Cc1nc(NC(=S)Nc2ccc(F)cc2)sc1C(=O)NNC(=S)Nc1ccc(F)cc1 | 6.93 | 48.1 | 4.38 | 80.7 | 3.5 | 15.2 | 3.33 | > 100 | 10.1 | 36.8 |  |  | 1.49 | 7.25 | 7.11 | 20 | 2.56 | 15.7 |  | 
9 | C=C1C(=O)O[C@@H]2C[C@@H](C)[C@@H]3[C@@H](OC4OC(COC(C)=O)C(O)C(O)C4O)CC(=O)[C@@]3(C)C[C@H]12 (stereo partly specified) |  | 3.36 |  | 23.7 |  | 4.86 |  | 7.4 |  | 3.49 |  | 4.21 |  | 2.15 |  | 1.88 |  | 16.1 | 1.78 | 
10 | Cc1cc(S(=O)(=O)NC#N)c(S/C(=N\Nc2ccc([N+](=O)[O-])cc2)c2ccccc2)cc1Cl | 16 | 38.3 | 21.5 | 57.1 | 19.3 | 35.7 | 4.43 | 81.2 | 35.9 | > 100 | 23.4 | 48.9 | 10.7 | 32.7 | 44.7 | > 100 | 20.2 | 51.5 | 28.8 | 15.4
11 | Cc1ccc(C(=O)N/N=C/c2cccc(Oc3ccccc3)c2)cn1 | 14.4 | > 100 | 7.75 | > 100 | 5.21 | > 100 | 3.83 | 34.5 | > 56.3 | > 100 | 18.9 | > 100 | 12.7 | > 100 | 5.66 | 38.1 | 4.25 | > 100 | > 100 | 8.54
12 | CN(C)CC#Cc1cccc(C(=O)c2cnn(-c3ccc(F)cc3)c2N)c1 | > 25 | > 25 | > 25 | > 25 | 16.1 | > 25 | > 25 | > 25 | > 25 | > 25 | > 25 | > 25 | > 17.7 | > 25 | > 25 | > 25 | > 25 | > 25 | > 25 | > 25
13 | CO/N=C1/NC(=O)/C(=C/c2ccc3ncccc3c2)S1 | 8.01 | > 25 | 11.7 | > 25 | > 14.1 | > 25 | 16.1 | > 25 | 18 | > 25 | 9.81 | > 25 | 4.48 | > 25 | > 25 | > 25 | 10.9 | > 25 | > 25 | 12.8
14 | O=C(Nc1cc(Cl)ccc1O)c1cccc(NC2=C(Cl)C(=O)N(Cc3ccccc3)C2=O)c1 | 37.3 | 95.5 | 19.2 | 46.1 | 17 | 31.5 | 3.24 | 15.8 | 23.8 | 68.2 | 17.4 | 45.1 |  |  | 30.9 | > 100 | 2.14 | 11.5 | 32.1 | 15.7
15 | CCOC(=O)[C@@H](C)C[C@H](Cc1ccccc1)NC(=O)c1csc([C@@H](C[C@H](C(C)C)N(C)C(=O)[C@H](CCC(C)C)NC(=O)[C@H]2CCCCN2C)OC(C)=O)n1 | 4.12 | > 33.3 | < 0.00333 | 7.15 | < 0.00333 | 0.0927 | 0.0167 | 5.1 | 4.24 | 10.3 |  |  | 0.658 | 23.3 | 0.00439 | 0.0352 | 0.006 | 4.35 | 4.85 | 0.0133
16 | O=C(Nc1ccc(Nc2ccncc2)cc1)c1ccc(Nc2ccnc3ccc([N+](=O)[O-])cc23)cc1 | > 100 | > 100 | > 100 | > 100 | 71.4 | > 100 | > 100 | > 100 | > 100 | > 100 |  |  | > 100 | > 100 | > 100 | > 100 | > 100 | > 100 | > 100 | > 100
17 | c1cncc(C(Nc2cccc3cccnc23)Nc2cccc3cccnc23)c1 |  | > 100 |  | > 100 |  | > 100 |  |  |  | > 100 |  | > 100 |  | > 100 |  | > 100 |  | > 100 | > 100 | 
18 | O=c1[nH]nc2c3c(cccc13)NC(CN1Cc3ccccc3C1)=N2 | 8.89 | > 100 | 7.23 | > 100 | 8.42 | > 100 | 4.56 | > 100 | 37 | > 100 | 3.79 | 74.1 |  |  | 4.09 | 89.7 | 4.42 | > 100 | > 100 | 3.16
19 | Clc1cc(Cl)cc(N2N=C(c3cccc(Nc4ccncc4)c3)CC2c2ccc(Br)cc2)c1 (stereo unspecified) | 1.86 | 3.6 | 1.66 | 3.31 | 1.81 | 3.26 | 1.95 | 4.44 | 1.92 | 3.85 |  |  | 1.48 | 2.94 | 1.82 | 3.86 | 3.02 | 31.2 | 3.06 | 1.7
20 | C=C(CN1CCN(c2ccccc2F)CC1)c1ccc(C(=O)Nc2ccccc2N)cc1 | 1.7 | 59.8 | 1.21 | 4.01 | 1.51 | 16.8 | 0.549 | 4.86 | 0.992 | 35.3 | 0.702 | 7.08 | 0.611 | 5.55 | 2.67 | 11.1 |  |  | 24.4 | 1.53
21 | O=[N+]([O-])c1cc(Br)cc2c1[nH]c1ccc(Br)cc12 | 2.46 | 8.48 | 10.2 | > 100 | 8.03 | > 100 |  |  | 86 | > 100 | 5.04 | 20.9 | 7.85 | 36.5 | 4.7 | > 100 |  |  | > 100 | 4.9
22 | COC[C@H]1OC(=O)c2coc3c2[C@@]1(C)C1=C(C3=O)[C@@H]2CCC(=O)[C@@]2(C)C[C@H]1OC(C)=O |  | > 100 |  | > 100 |  | 61 |  | 42.3 |  | > 100 | 0.264 | 3.07 |  |  |  | > 31.6 |  | > 53.5 | 53.8 | 
23 | CCOC(=O)C(Cc1c[nH]c2cc([N+](=O)[O-])ccc12)(NC(C)=O)C(=O)OCC | 296 | > 760 |  | > 1000 |  |  | 35.2 |  |  | > 1000 | 58.6 | 133 | 47.5 | 141 | > 1000 | > 1000 |  |  | > 1000 | > 766
24 | CN(C)CCNC(=O)c1cc([N+](=O)[O-])ccn1 |  | > 100 |  | 61.4 |  | 41.5 |  | 49.3 |  | 29.8 |  | > 100 |  |  |  | 26.3 |  | 91.8 | 96.9 | 
25 | O=C(N/N=C/c1ccc(O)cc1O)c1ccc(Nc2ccnc(C(F)(F)F)c2)cc1 | 2.06 | > 47.1 | > 45.1 | > 100 | > 100 | > 100 |  |  | > 100 | > 100 | 17.3 | 64.1 | 15 | > 75.6 | 7.61 | > 100 | 0.0913 | > 100 | > 100 | 8.31
26 | Cc1nc(Nc2ccc(F)c(Cl)c2)sc1C(=O)O | 1.96 | 4.09 | 1.75 | 4.8 | 1.48 | 2.82 |  |  | 1.78 | 3.36 | 1.71 | 3.94 | 0.877 | 2.74 | 1.64 | 3.2 | 3.01 | > 100 | 2.91 | 1.51
27 | Cc1ccc2c(=O)[nH]sc2c1 |  | 33.9 |  | 29.1 |  | 25.6 |  | 23.8 |  | 44.1 |  | 28.6 |  |  |  | 16.7 |  | 13.9 | 32.9 | 
28 | O=C(Nc1ccc2oc(=O)c(C(=O)O)cc2c1)Oc1ccccc1 |  | > 100 |  | > 100 |  | > 100 |  | > 100 |  | > 100 |  | > 100 |  | > 100 |  | > 100 |  |  | > 100 | 
29 | O=C(c1cc(-c2cc3c(cc2C(=O)N2Cc4ccccc4C[C@H]2CN2CCOCC2)OCO3)n2c1CCCC2)N(c1ccccc1)c1ccc(O)cc1 | 27.8 | > 100 | 2.99 | > 100 | 3.78 | 18.6 |  |  | 18.9 | > 100 | 2.77 | 17.5 | 2.72 | 15 | 6.71 | > 100 | 3.34 | > 100 | > 100 | 7.09
